Measurements: patent publication EP0245669B1, “Pharmaceutical preparation for preventing damage to living cells by free radicals, or for increasing the efficacy of organic sulphur compounds, and process for increasing the life span of isolated organs” (Medopharm Arzneimittelwerk Dr. Zillich GmbH & Co., priority 1986, dated 1987)
Where a name gives a salt, the structure may show the parent alone.

Test system: weiblichen C3H Mäusen
Experiment: Radiation protection: survival of mice after gamma irradiation (cobalt-60) following i.p. pretreatment
Format: in vivo, Mäuse
Settings: for Ueberlebensrate nach Bestrahlung mit 9 Gy / überlebten eine Bestrahlung mit 9 Gy: 10 min before 9 Gy; for Ueberlebensrate nach Bestrahlung mit 9 Gy / Ueberlebensrate nach Bestrahlung mit 11 Gy / Ueberlebensrate nach Bestrahlung mit 13 Gy / Ueberlebensrate nach Bestrahlung mit 12 Gy / Ueberlebensrate nach Bestrahlung mit 14 Gy / Ueberlebensrate nach Bestrahlung mit 10 Gy: surviving after 30 days/irradiated mice; for Ueberlebensrate in %: AET alone in optimal dosage, 30 days after irradiation; for Ueberlebensrate nach Bestrahlung mit 10 Gy / überlebten eine Bestrahlung mit 10 Gy: 10 min before 10 Gy
Description: In den nachfolgenden Beispielen wurde die synergistische Wirkung der durch die erfindungsgemässe Verwendung hergestellten pharmazeutischen Präparate mit organische Schwefelverbindungen enthaltenden Präparaten anhand des Strahlenschutzes getestet und es wurde auch die Strahlenschutzwirkung der Zinkionen enthaltenden Präparate mit bisher bekannten Strahlenschutzpräparaten an Mäusen getestet. Die Versuche wurden mit weiblichen C3H Mäusen (GL. Bomholtgard, Ry, Dänemark) durchgeführt, die 20 bis 22 g wogen. Die Mäuse wurden unter Bedingungen gehalten, wo sie so viel Standard-Nagetierfutter (Nafag Pellts) fressen und so viel Leitungswasser trinken können, wie sie wollten. Die Bestrahlung erfolgte mit Gammastrahlen aus einer Kobalt-60 Quelle. Es wurden unterschiedliche Bestrahlungen vorgenommen, und zwar mit 9 Gy, 10 Gy, 11 Gy, 12 Gy, 13 Gy und 14 Gy.
10 Minuten vor der Bestrahlung, 30 Minuten vor der Bestrahlung oder 120 Minuten vor der Bestrahlung wurde ein durch die erfindungsgemässe Verwendung hergestelltes synergistisch wirkendes pharmazeutisches Präparat, bzw. ein entsprechendes, Zinkionen enthaltendes Strahlenschutzpräparat oder ein aus dem Stand der Technik bekanntes Strahlenschutzpräparat zu Vergleichszwecken durch intraperitoneale Injektion verabreicht.
Bei der Gruppe der Mäuse zu Vergleichszwecken, die ohne Verabreichung eines Strahlenschutzpräparates bestrahlt wurden, erfolgte 10 Minuten vor der Bestrahlung die Verabreichung von destilliertem Wasser. Bei diesen unbehandelten Mäusen überlebten nur 50% der Tiere eine Bestrahlung von 8 Gy, d.h. der LD₅₀-Wert betrug 8 Gy.
Nach den Arbeitsweisen der vorangegangenen Beispiele 1 bis 4, wurden weitere Tests mit den genannten weiblichen Mäusen durchgeführt, und zwar unter Verwendung der angeführten Zinksalze. Die bei diesen Tests erzielten Ergebnisse sind in der nachfolgenden Tabelle I zusammengestellt. Für jede der angewandten Bestrahlungsstärken ist in der Rubrik "Anzahl" diejenige Anzahl der Mäuse angeführt, welche die Bestrahlung überlebten, geteilt durch die Gesamtzahl der Mäuse, welche bestrahlt wurden. Ein entsprechender Wert von 1/10 bedeutet also, dass von 10 bestrahlten Mäusen eine überlebt hatte. In der Spalte mit der Bezeichnung "Prozent", ist die Prozent-Ueberlebensrate angeführt. Bei einer überlebenden Maus pro 10 getesteten Mäusen beträgt diese Ueberlebensrate 10 %.
Zu Vergleichszwecken sind in der nachfolgenden Tabelle III die Ueberlebensraten von Mäusen zusammengestellt, die nach dem in Beispiel 5 beschriebenen Verfahren einer Vorbehandlung mit einem bekannten schwefelhaltigen Strahlenschutzmittel unterworfen worden waren. Orientierende Vorversuche hatten gezeigt, dass diese Strahlenschutzmittel bereits ihre Wirkung verloren hatten, wenn sie zwei Stunden vor der Einwirkung der Bestrahlung verabreicht worden waren. Die Bestrahlung wurde, wie aus der Tabelle ersichtlich ist, zwei Minuten nach der Verabreichung, in den meisten Fällen 10 Minuten nach der Verabreichung, aber auch 30 Minuten, bzw. 120 Minuten nach der Verabreichung durchgeführt. Die Werte deuten darauf hin, dass 30 Minuten nach der Verabreichung die Schutzwirkung schon wieder deutlich nachgelassen hat. Für jede Bestrahlungsstärke ist wiederum die Anzahl der Tiere angeführt, die nach 30 Tagen überlebt haben, geteilt durch die Gesamtzahl der Tiere, die behandelt und bestrahlt worden waren.
Anhand dieses Beispiels soll die synergistische Wirkung von Zinkionen und Schwefelverbindungen bezüglich eines Strahlenschutzes erläutert werden. Es wurde wieder in der gleichen Weise gearbeitet, wie in den vorangegangenen Beispielen 1 bis 3, bzw. 5, und es wurde auch die gleiche Art an weiblichen Mäusen getestet. Die Verabreichung der Zinkionen enthaltenden Lösung und der Lösung der Schwefelverbindung erfolgte entweder nacheinander oder gleichzeitig durch intraperitoneale Injektion.
In allen Fällen wurde die Ueberlebensrate 30 Tage nach der Einwirkung der Bestrahlung bestimmt.

[1] = comparison with the zinc compounds to be used according to the invention

Compound: N=C(N)SCCN [AET, S-(2-Aminoäthyl)-isothiouroniunibromid-hydrobromid, reference compound]
- Ueberlebensrate nach Bestrahlung mit 9 Gy (30 mg/kg i.p.): 1/10
- Strahlenschutzwirksamkeit (125 mg/kg body weight, 10 min before irradiation): keine Strahlenschutzwirksamkeit
- Ueberlebensrate nach Bestrahlung mit 11 Gy (125 mg/kg i.p., 10 min before 11 Gy): 0/10
- Ueberlebensrate nach Bestrahlung mit 13 Gy (125 mg/kg i.p., 10 min before 13 Gy): 0/10
- überlebte eine Bestrahlung mit 11 Gy (125 mg/kg, 10 min before 11 Gy): kein Tier
- überlebte eine Bestrahlung mit 13 Gy (125 mg/kg, 10 min before 13 Gy): kein Tier
- Ueberlebensrate nach Bestrahlung mit 13 Gy (250 mg/kg i.p., 2 min before 13 Gy): 0/10
- Ueberlebensrate nach Bestrahlung mit 11 Gy (250 mg/kg i.p., 10 min before 11 Gy): 10/10^+
- Ueberlebensrate nach Bestrahlung mit 12 Gy (250 mg/kg i.p., 10 min before 12 Gy): 9/10^+
- Ueberlebensrate nach Bestrahlung mit 13 Gy (250 mg/kg i.p., 10 min before 13 Gy): 2/10^+
- Ueberlebensrate nach Bestrahlung mit 14 Gy (250 mg/kg i.p., 10 min before 14 Gy): 0/10
- Ueberlebensrate nach Bestrahlung mit 11 Gy (250 mg/kg i.p., 30 min before 11 Gy): 10/10
- Ueberlebensrate nach Bestrahlung mit 12 Gy (250 mg/kg i.p., 30 min before 12 Gy): 2/10
- Ueberlebensrate nach Bestrahlung mit 11 Gy (250 mg/kg i.p., 120 min before 11 Gy): 0/10
- überlebten eine Bestrahlung von 11 Gy (250 mg/kg, 10 min before 11 Gy): sämtliche
- überlebten eine Bestrahlung von 12 Gy (250 mg/kg, 10 min before 12 Gy): 9 von 10 getesteten Tieren
- überlebten eine Bestrahlung von 13 Gy (250 mg/kg, 10 min before 13 Gy): 2 von 10 getesteten Tieren
- Bestrahlung von 14 Gy überlebt (250 mg/kg, 10 min before 14 Gy, 10 animals tested): von keinem der 10 getesteten Tiere
- Ueberlebensrate in % (11 Gy): 100%
- Ueberlebensrate in % (12 Gy): 90%
- Ueberlebensrate in % (13 Gy): 20%
- Ueberlebensrate in % (14 Gy): 0%

Compound: NCCS [Cysteamin, β-Merkaptoäthylamin, reference compound]
- Ueberlebensrate nach Bestrahlung mit 10 Gy (75 mg/kg i.p.): 0/10
- Strahlenschutzwirkung (150 mg/kg body weight, 10 min before 11 Gy): keine Strahlenschutzwirkung
- Ueberlebensrate nach Bestrahlung mit 9 Gy (150 mg/kg i.p.): 10/10
- Ueberlebensrate nach Bestrahlung mit 10 Gy (150 mg/kg i.p.): 9/10
- Ueberlebensrate nach Bestrahlung mit 11 Gy (150 mg/kg i.p., 10 min before 11 Gy): 0/10
- Ueberlebensrate (225 mg/kg alone, injected 10 min before 13 Gy): 10%
- Ueberlebensrate nach Bestrahlung mit 14 Gy (225 mg/kg i.p., 2 min before 14 Gy): 0/10
- Ueberlebensrate nach Bestrahlung mit 10 Gy (225 mg/kg i.p.): 10/10^+
- Ueberlebensrate nach Bestrahlung mit 11 Gy (225 mg/kg i.p., 10 min before 11 Gy): 8/10^+
- Ueberlebensrate nach Bestrahlung mit 12 Gy (225 mg/kg i.p., 10 min before 12 Gy): 6/10^+
- Ueberlebensrate nach Bestrahlung mit 13 Gy (225 mg/kg i.p., 10 min before 13 Gy): 1/10^+
- Ueberlebensrate nach Bestrahlung mit 14 Gy (225 mg/kg i.p., 10 min before 14 Gy): 0/10
- Ueberlebensrate nach Bestrahlung mit 11 Gy (225 mg/kg i.p., 30 min before 11 Gy): 6/10
- Ueberlebensrate nach Bestrahlung mit 12 Gy (225 mg/kg i.p., 30 min before 12 Gy): 1/10
- Ueberlebensrate nach Bestrahlung mit 11 Gy (225 mg/kg i.p., 120 min before 11 Gy): 0/10
- überlebten eine Bestrahlung mit 11 Gy (225 mg/kg, 10 min before 11 Gy, of 10 animals tested): 8
- überlebten eine Bestrahlung mit 12 Gy (225 mg/kg, 10 min before 12 Gy, of 10 animals tested): 6
- überlebten eine Bestrahlung mit 13 Gy (225 mg/kg, 10 min before 13 Gy, of 10 animals tested): 1
- überlebten eine Bestrahlung mit 14 Gy (225 mg/kg, 10 min before 14 Gy, of 10 animals tested): keines
- überlebten eine Bestrahlung mit 11 Gy (225 mg/kg, 30 min before 11 Gy, of 10 animals tested): 6 Tiere
- überlebten eine Bestrahlung mit 12 Gy (225 mg/kg, 30 min before 12 Gy, of 10 animals tested): 1 Tier

Compound: N[C@@H](CS)C(=O)O [Cystein, reference compound]
- Ueberlebensrate nach Bestrahlung mit 9 Gy (300 mg/kg i.p.): 0/10
- Ueberlebensrate nach Bestrahlung mit 9 Gy (600 mg/kg i.p.): 7/10
- Ueberlebensrate nach Bestrahlung mit 10 Gy (600 mg/kg i.p.): 3/10
- überlebten eine Bestrahlung mit 10 Gy (600 mg/kg): 3 von 10 Mäusen
- Ueberlebensrate nach Bestrahlung mit 9 Gy (900 mg/kg i.p.): 10/10^+
- Ueberlebensrate nach Bestrahlung mit 10 Gy (900 mg/kg i.p.): 4/10
- Ueberlebensrate nach Bestrahlung mit 11 Gy (900 mg/kg i.p., 10 min before 11 Gy): 0/10
- überlebten eine Bestrahlung mit 10 Gy (900 mg/kg): 4 von 10 Mäusen
- Ueberlebensrate nach Bestrahlung mit 10 Gy (1200 mg/kg i.p.): 9/10^+
- Ueberlebensrate nach Bestrahlung mit 11 Gy (1200 mg/kg i.p., 10 min before 11 Gy): 2/10^+
- Ueberlebensrate nach Bestrahlung mit 12 Gy (1200 mg/kg i.p., 10 min before 12 Gy): 1/10^+
- Ueberlebensrate nach Bestrahlung mit 11 Gy (1200 mg/kg i.p., 30 min before 11 Gy): 0/10
- überlebten eine Bestrahlung mit 10 Gy (1200 mg/kg): 9 von 10 Mäusen
- überlebten (11 Gy) (1200 mg/kg, 10 min before 11 Gy): zwei
- Bestrahlung mit 11 Gy überlebt (600, 900 and 1200 mg/kg, 10 min before 11 Gy): praktisch keinem der Tiere
- Strahlenschutzwirkung [1]: deutlich weniger wirksam

Compound: N[C@@H](CCC(=O)N[C@@H](CS)C(=O)NCC(=O)O)C(=O)O [L-Glutathion, reference compound]
- überlebten eine Bestrahlung mit 9 Gy (100 mg/kg body weight (lower dose)): 3 von 10 Tieren
- Ueberlebensrate nach Bestrahlung mit 9 Gy (1000 mg/kg i.p.): 3/10
- überlebten eine Bestrahlung mit 9 Gy (2000 mg/kg body weight (higher dose)): 2 von 10 Tieren
- Ueberlebensrate nach Bestrahlung mit 9 Gy (2000 mg/kg i.p.): 2/10
- Strahlenschutzwirkung [1]: deutlich weniger wirksam

Compound: N[C@@H](CC(=O)O)C(=O)[O-].[Na+] [Natriumaspartat, reference compound]
- Strahlenschutzwirkung (20 to 350 mg/kg body weight injected 10 min before 9 Gy, lethal dose already reached): wirkungslos

Compound: COc1ccc(CCCCNCCSS(=O)(=O)O)cc1 [reference compound]
- Synergismus mit Zinkionen (Strahlenschutz) (in combination with zinc ions and zinc complexes, procedure of Example 6): die besten Ergebnisse

Compound: Kupferaspartat [reference compound]
- Strahlenschutzwirkung (10 to 30 mg/kg body weight injected 10 min before 9 Gy, lethal dose already reached): wirkungslos
